# Experimental data taken from patent US20240391862A1, “(1,4,5-TRISUBSTITUTED-1H-PYRAZOL-3-YL)OXY-2-ALKOXY ALKYL ACIDS AND THEIR DERIVATIVES, THEIR SALTS AND THEIR USE AS HERBICIDAL AGENTS” (Bayer AKtiengesellschaft, priority 2021, published 2024).
# Columns and labels:
# SETVI [1] = experiment: Pre-emergence herbicidal effect, greenhouse pot test; format: in vivo, Setaria viridis; conditions: scored visually after about 3 weeks vs untreated controls; for pest or weed control at 320 g/ha: Setaria viridis, 504 h, read-out: Pre-emergence effect at 320 g/ha against SETVI in %
# Summary of the method: (§1)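 Seeds sown in pots and covered with soil; WP- or EC-formulated compounds applied to the soil surface as aqueous suspension/emulsion with 0.5% additive at 600 l/ha water, 20 to 320 g/ha. Greenhouse growth; visual % effect vs untreated controls after about 3 weeks (100% = plants died, 0% = like control).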
# AMARE [2] = experiment: as above; format: in vivo, Amaranthus retroflexus; conditions: scored visually after about 3 weeks vs untreated controls; for pest or weed control at 320 g/ha: Amaranthus retroflexus, 504 h, read-out: Pre-emergence effect at 320 g/ha against AMARE in %
# Summary of the method: as §1
# SETVI [3] = experiment: Post-emergence herbicidal effect, greenhouse pot test; format: in vivo, Setaria viridis; conditions: Setaria viridis, 504 h, read-out: Post-emergence effect against SETVI in %
# Summary of the method: (§2)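 Weeds sown in sandy loam, greenhouse-grown 2–3 weeks, then sprayed at one-leaf stage with WP or EC formulations in water plus 0.5% additive at 600 l/ha. Rates 20 to 320 g/ha. Visual rating after about 3 weeks versus untreated controls (100% = plants dead, 0% = like control).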
# ALOMY [4] = experiment: Pre-emergence herbicidal effect, greenhouse pot test; format: in vivo, Alopecurus myosuroides; conditions: scored visually after about 3 weeks vs untreated controls
# From the text: (§3) Seeds of monocotyledonous and dicotyledonous weed plants and crop plants are placed in plastic or organic planting pots and covered with soil. The compounds of the invention, formulated in the form of wettable powders (WP) or as emulsion concentrates (EC), are then applied to the surface of the covering soil as aqueous suspension or emulsion with addition of 0.5% additive at a water application rate equivalent to 600 l/ha. After the treatment, the pots are placed in a greenhouse and kept under good growth conditions for the trial plants. After about 3 weeks, the effect of the preparations is scored visually in comparison with untreated controls as percentages. For example, 100% activity=the plants have died, 0% activity=like control plants.
# (§4) Tables 1a to 19c below show the effects/crop compatibilities of selected compounds of the general formula (I) on various harmful plants at an application rate corresponding to 20 to 320 g/ha, which were obtained by the trial procedure specified above.
# (§5) • ALOMY: Alopecurus myosuroides SETVI: Setaria viridis • AVEFA: Avena fatua POLCO: Fallopia convolvulus • AMARE: Amaranthus retroflexus ECHCG: Echinochloa crus-galli • LOLRJ: Lolium rigidum STEME: Stellaria media • VERPE: Veronica persica MATIN: Tripleurospermum inodorum • DIGSA: Digitaria sanguinalis ABUTH: Abutylon threophrasti • TRZAS: Triticum aestivum VIOTR: Viola tricolor • BRSNW: Brassica napus ZEAMX: Zea mays • PHBPU: Ipomoea purpurea GLXMA: Glycine max • ORYSA: Oryza sativa HORMU: Hordeum murinum
# VERPE = experiment: Post-emergence herbicidal effect, greenhouse pot test; format: in vivo, Veronica persica; conditions: Veronica persica, 504 h, read-out: Post-emergence effect against VERPE in %
# Summary of the method: as §2
# LOLRI [5] = experiment: Pre-emergence herbicidal effect, greenhouse pot test; format: in vivo, Lolium rigidum; conditions: scored visually after about 3 weeks vs untreated controls
# From the text: as §3, §4, §5
# PHBPU = experiment: Post-emergence herbicidal effect, greenhouse pot test; format: in vivo, Ipomoea purpurea; conditions: Ipomoea purpurea, 504 h, read-out: Post-emergence effect against PHBPU in %
# Summary of the method: as §2
# MATIN [6] = experiment: Pre-emergence herbicidal effect, greenhouse pot test; format: in vivo, Tripleurospermum inodorum; conditions: scored visually after about 3 weeks vs untreated controls; for pest or weed control at 320 g/ha: Tripleurospermum inodorum, 504 h, read-out: Pre-emergence effect at 320 g/ha against MATIN in %
# From the text: as §3, §4, §5
# AVEFA [7] = experiment: Post-emergence herbicidal effect, greenhouse pot test; format: in vivo, Avena fatua; conditions: Avena fatua, 504 h, visual rating about 3 weeks after treatment, read-out: Post-emergence effect against AVEFA
# Summary of the method: as §2
# ALOMY [8] = experiment: as above; format: in vivo, Alopecurus myosuroides; conditions: Alopecurus myosuroides, 504 h, visual rating about 3 weeks after treatment, read-out: Post-emergence effect against ALOMY
# Summary of the method: as §2
# VIOTR = experiment: as above; format: in vivo, Viola tricolor; conditions: Viola tricolor, 504 h, read-out: Post-emergence effect against VIOTR in %
# Summary of the method: as §2
# ZEAMX = experiment: Pre-emergence herbicidal effect and crop plant compatibility, greenhouse pot test; format: in vivo, Zea mays; conditions: 80 g/ha, scored visually after about 3 weeks vs untreated controls
# Summary of the method: as §1
# ECHCG [9] = experiment: Post-emergence herbicidal effect, greenhouse pot test; format: in vivo, Echinochloa crus-galli; conditions: Echinochloa crus-galli, 504 h, read-out: Post-emergence effect against ECHCG in %
# Summary of the method: as §2
# LOLRI [10] = experiment: as above; format: in vivo, Lolium rigidum; conditions: Lolium rigidum, 504 h, read-out: Post-emergence effect against LOLRI in %
# Summary of the method: as §2
# MATIN [11] = experiment: as above; format: in vivo, Tripleurospermum inodorum; conditions: Tripleurospermum inodorum, 504 h, read-out: Post-emergence effect against MATIN in %
# Summary of the method: as §2
# AMARE [12] = experiment: as above; format: in vivo, Amaranthus retroflexus; conditions: Amaranthus retroflexus, 504 h, visual rating about 3 weeks after treatment, read-out: Post-emergence effect against AMARE
# Summary of the method: as §2
# ECHCG [13] = experiment: Pre-emergence herbicidal effect, greenhouse pot test; format: in vivo, Echinochloa crus-galli; conditions: scored visually after about 3 weeks vs untreated controls; for pest or weed control at 320 g/ha: Echinochloa crus-galli, 504 h, read-out: Pre-emergence effect at 320 g/ha against ECHCG in %
# From the text: as §3, §4, §5
# POLCO = experiment: as above; format: in vivo, Fallopia convolvulus; conditions: scored visually after about 3 weeks vs untreated controls; for pest or weed control at 320 g/ha: Fallopia convolvulus, 504 h, read-out: Pre-emergence effect at 320 g/ha against POLCO in %
# From the text: as §3, §4, §5
# AVEFA [14] = experiment: as above; format: in vivo, Avena fatua; conditions: 320 g/ha, scored visually after about 3 weeks vs untreated controls
# From the text: as §3, §4, §5
SMILES,pest or weed control at 320 g/ha (SETVI [1]),pest or weed control at 320 g/ha (AMARE [2]),pest or weed control at 80 g/ha (SETVI [3]),pest or weed control at 320 g/ha (SETVI [3]),Pre-emergence effect at 320 g/ha against ALOMY in % (ALOMY [4]),pest or weed control at 320 g/ha (VERPE),Pre-emergence effect at 320 g/ha against LOLRI in % (LOLRI [5]),pest or weed control at 320 g/ha (PHBPU),pest or weed control at 320 g/ha (MATIN [6]),pest or weed control at 320 g/ha (AVEFA [7]),pest or weed control at 80 g/ha (ALOMY [8]),pest or weed control at 320 g/ha (ALOMY [8]),pest or weed control at 320 g/ha (VIOTR),Pre-emergence effect at 80 g/ha against ZEAMX in % (ZEAMX),pest or weed control at 320 g/ha (ECHCG [9]),pest or weed control at 320 g/ha (LOLRI [10]),pest or weed control at 320 g/ha (MATIN [11]),pest or weed control at 320 g/ha (AMARE [12]),pest or weed control at 320 g/ha (ECHCG [13]),pest or weed control at 320 g/ha (POLCO),other results
"CCOC(=O)C(OCC)Oc1nn(-c2ccccc2F)c(-c2ccc(F)nc2)c1Br (racemic) [Example I-01, Ethyl (2RS)-{[4-bromo-1-(2-fluorophenyl)-5-(6-fluoropyridin-3-yl)-1H-pyrazol-3-yl]oxy}(ethoxy)acetate]",100%,100%,90%,90%,90%,90%,100%,90%,90%,90%,90%,100%,90%,0%,90%,90%,90%,90%,100%,90%,Pre-emergence effect at 80 g/ha against AMARE in % (AMARE [2]): 80%; pest or weed control at 80 g/ha (VERPE): 80%; Pre-emergence effect at 80 g/ha against LOLRI in % (LOLRI [5]; 80 g/ha): 90%; pest or weed control at 80 g/ha (PHBPU): 90%; Pre-emergence effect at 80 g/ha against MATIN in % (MATIN [6]; 80 g/ha): 90%; pest or weed control at 80 g/ha (VIOTR): 80%; pest or weed control at 80 g/ha (ECHCG [9]): 90%; pest or weed control at 80 g/ha (MATIN [11]): 80%; pest or weed control at 80 g/ha (AMARE [12]; 80 g/ha): 80%; Pre-emergence effect at 80 g/ha against POLCO in % (POLCO): 80%
"COC(=O)C(OC)Oc1nn(-c2ccccc2F)c(-c2ccc(F)nc2)c1Br (racemic) [Example I-04, Methyl (2RS)-{[4-bromo-1-(2-fluorophenyl)-5-(6-fluoropyridin-3-yl)-1H-pyrazol-3-yl]oxy}(methoxy)acetate]",100%,100%,80%,80%,90%,90%,100%,80%,90%,90%,90%,90%,80%,0%,80%,80%,80%,90%,100%,90%,Pre-emergence effect at 80 g/ha against SETVI in % (SETVI [1]; 80 g/ha): 80%; Pre-emergence effect at 80 g/ha against AMARE in % (AMARE [2]): 80%; Pre-emergence effect at 80 g/ha against ALOMY in % (ALOMY [4]; 80 g/ha): 80%; pest or weed control at 80 g/ha (VERPE): 90%; pest or weed control at 80 g/ha (PHBPU): 80%; pest or weed control at 80 g/ha (AVEFA [7]): 80%; Pre-emergence effect at 320 g/ha against AVEFA in % (AVEFA [14]): 80%; pest or weed control at 80 g/ha (VIOTR): 80%; pest or weed control at 80 g/ha (ECHCG [9]): 80%; pest or weed control at 80 g/ha (LOLRI [10]): 80%; pest or weed control at 80 g/ha (MATIN [11]): 80%; Pre-emergence effect at 80 g/ha against ECHCG in % (ECHCG [13]; 80 g/ha): 80%; Pre-emergence effect at 80 g/ha against POLCO in % (POLCO): 80%
COC(=O)C(OC)Oc1nn(-c2ncccc2F)c(-c2ccc(F)nc2)c1Br (centres unmarked) [Example I-05],100%,90%,80%,80%,90%,80%,100%,90%,90%,80%,90%,90%,80%,20%,80%,90%,80%,80%,90%,90%,pest or weed control at 80 g/ha (AVEFA [7]): 80%; Pre-emergence effect at 320 g/ha against AVEFA in % (AVEFA [14]): 90%; pest or weed control at 80 g/ha (LOLRI [10]): 80%
